Data from the METLIN SMRT retention time set (Domingo-Almenara et al. 2019).

Assay: gradient 5% acetonitrile 3 min, to 50% in 2 min, to 85% in 15 min, held 3 min, 100 µL/min
Settings: column: Zorbax Extend-C18 2.1 x 50 mm; eluents: water / acetonitrile, 0.1% formic acid
Outline: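 Using water and acetonitrile that each contained 0.1% formic acid, mixtures of ~100 pure standards were separated at 100 μL/min on a Zorbax Extend-C18 column (2.1 × 50 mm, 1.8 μm). The HPLC fed a quadrupole time-of-flight mass spectrometer working in positive and negative ionization mode, with dead and dwell volumes of 40 μL and 900 μL. Data were acquired over 3 months. Retention time was read from computationally picked adduct peaks after manual inspection of each.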

Row | Structure (SMILES) | RP-LC retention time [s]
1 | CCCNC(=O)C1CCN(c2ccc(SCC(=O)NCc3cc(F)cc(F)c3)nn2)CC1 | 626
2 | O=C(CN1C(=O)CCCc2ccccc21)N1CCN(C(=O)c2ccco2)CC1 | 678
3 | COc1cccc(-c2nc3nc(C)c(CCC(=O)NC4CCCCC4)c(C)n3n2)c1 | 827
4 | O=C1C(N2CCN(S(=O)(=O)c3ccccc3F)CC2)CCN1Cc1ccccn1 (stereo unspecified) | 571
5 | O=C(NCc1cccc(F)c1)C1CCCN(c2nnc3c(Cl)cccn23)C1 (stereo unspecified) | 701
6 | COc1cccc(C(=O)COc2cc(O)c3c(=O)cc(-c4ccccc4)oc3c2)c1 | 1170
7 | Cc1ccc(C)c(NC(=O)N2CCC(OC3CCN(S(C)(=O)=O)CC3)CC2)c1 | 771
8 | Cc1ccc(NC(=O)CN2C(=O)CCCc3cc(S(=O)(=O)N4CCCC4)ccc32)c(Cl)c1 | 912
9 | N#CCn1cccc(S(=O)(=O)N2CCCCCC2)c1=O | 737
10 | Cc1ccc(-n2c(C)c(C)c3c(=O)n(CC(=O)NC4CC4)cnc32)cc1 | 769
11 | CC(C)CC(=O)Nc1ccc(-n2cnc(C(=O)N3CCN(C(C)C)CC3)c2)nc1 | 581
12 | O=C(NCc1nc(-c2ccccc2)no1)C1CCN(Cc2nc3ccccc3[nH]2)CC1 | 581
13 | O=C(Cc1cccn1-c1ccc(F)cc1)N1CCOCC1 | 760
14 | CCOc1ccc(S(=O)(=O)N2CCC(c3nc(C(=O)N(C)C)c(C)o3)CC2)cc1 | 843
15 | CC(C)Sc1ccc(CC(=O)NCC2CCN(C(=O)c3ccccc3F)CC2)cc1 | 833
16 | CCCn1nc(CNC(=O)c2cccc3[nH]ccc23)c2ccccc21 | 813
17 | CCN(CC)C(=O)c1ccc2c(c1)N(CC(=O)N(C)Cc1ccccc1)C(=O)CS2 | 787
18 | Cc1cc(-c2nnc3sc(COc4ccc(C(C)(C)C)cc4)nn23)n[nH]1 | 967
19 | CCCNC(=O)C1CCCN(c2ccc(SCC(=O)Nc3cc(Cl)ccc3C)nn2)C1 (stereo unspecified) | 720
20 | CCCN1CCN(c2cc(C(=O)O)c3cc(NS(=O)(=O)c4ccc(F)c(F)c4)ccc3n2)CC1 | 651
21 | CCOC(=O)c1c(C)c(C(=O)CN(CC2CCCO2)C(=O)c2cccc(F)c2)c(C)n1C (stereo unspecified) | 920
22 | COC(=O)c1ccc(N2C=C(C#N)S(=O)(=O)c3ccc(F)cc32)cc1 | 875

Row | Structure (SMILES) | RP-LC retention time [s]
23 | CCN(CC)C(=O)Cn1c(CO)nc2ccccc21 | 563
24 | Cc1nnc(NC(=O)COc2ccc3ccccc3c2)s1 | 742
25 | Cc1ccc(-c2nnc3ccc(N4CCC(C(=O)NC5CC5)CC4)nn23)cc1 | 736
26 | Cc1ccccc1-c1csc2c(=O)n(Cc3ccc(N4CCCC4=O)cc3)cnc12 | 889
27 | CCOc1ccc(CC(=O)N2C[C@@H]3C[C@H]2C[C@@H]3NC(=O)c2cccs2)cc1 | 782
28 | CCOC(=O)c1cnc(N2CCN(c3ccccc3OC)CC2)c2ccccc12 | 1150
29 | COc1ccc(OC)c(C(O)CN2CCN(c3ccccc3F)CC2)c1 (stereo unspecified) | 677
30 | Cc1nnc(NC(=O)CSc2nnc(-c3ccccc3F)o2)s1 | 700
31 | CCCNC(=O)C1CCCN(c2nc3ncn(CC(=O)NCCC4=CCCCC4)c(=O)c3s2)C1 (stereo unspecified) | 732
32 | O=S(=O)(c1cccn2c(SCc3c(F)cccc3Cl)nnc12)N1CCCC1 | 855
33 | CCn1cc(C(CNC(=O)Nc2cccc(SC)c2)c2cccnc2)c2ccccc21 (stereo unspecified) | 786
34 | CC(C)(C)CC(=O)N1C[C@H]2C[C@H](C1)[C@H]1CCCC(=O)N1C2 | 654
35 | CCCN(C)c1nccnc1OC1CCN(Cc2cccnc2)C1 (stereo unspecified) | 594
36 | CC(C)C(=O)N1CCc2cc(C(=O)N(C)C)ccc21 | 678
37 | Cc1ccc(C)c(-c2cc3c(=O)n(Cc4nc(-c5ccc(F)cc5)no4)ncn3n2)c1 | 1210
38 | CCCNS(=O)(=O)c1cc(-c2nc(C(C)C)cs2)sc1C | 1160
39 | O=C(NCc1ccco1)c1ccc(Nc2c(-c3ccccc3)nc3cnccn23)cc1 | 733
40 | CC1CCCN(c2nn(CC(=O)Nc3ccccc3F)c(=O)c3ccccc23)C1 (stereo unspecified) | 1140
41 | CCOC(=O)c1cc(S(=O)(=O)N2CCN(c3ncccn3)CC2)[nH]n1 | 766
42 | COC(=O)c1ccccc1NC(=O)c1c(O)c2cccc3c2n(c1=O)CC3 | 1170
43 | Cc1ccc2c(=O)c3c([nH]c2c1C)CCN(CC(=O)Nc1cc(F)ccc1F)C3 | 638
44 | COc1ccc(N2C=C(C(=O)N3CCCC3)S(=O)(=O)c3ccccc32)cc1Cl | 808

Row | Structure (SMILES) | RP-LC retention time [s]
45 | CCc1nc(-c2cc(S(=O)(=O)Nc3ccc(F)cc3F)c(C)s2)cs1 | 994
46 | CC1CCCCN1S(=O)(=O)c1cc(-c2nnc(C3CCCC3)o2)co1 (stereo unspecified) | 1060
47 | CC1CCN(c2cc(-n3cnc(C(=O)N4CCN(C5CCCCC5)CC4)c3)ncn2)CC1 | 597
48 | CC(C)n1cnc2ccc(-c3noc(COc4ccc(Cl)cc4)n3)cc21 | 853
49 | Cc1noc(C)c1-c1ccc(S(=O)(=O)N2CC=C(c3ccccc3)CC2)cc1 | 1110
50 | CCCN1C(=O)COc2ccc(-c3noc(C4CC(=O)N(c5ccc(OC)cc5)C4)n3)cc21 (stereo unspecified) | 951
51 | CCn1cc(-c2nc(CC(=O)N3CCN(c4ccc(F)cc4)CC3)cs2)c2cccnc21 | 921
52 | O=C(Cc1cccs1)NCCS(=O)(=O)N1CCN(c2ncccn2)CC1 | 653
53 | CCn1ccc(C(=O)N2CCN(c3ccc(=O)n(-c4ccc(Cl)cc4)n3)CC2)n1 | 753
54 | CCOC(=O)CNC(=O)NCc1cccn1Cc1cccc(F)c1 | 810
55 | COc1ccc(S(=O)(=O)Nc2c(C)n(C)n(-c3ccccc3)c2=O)cc1[N+](=O)[O-] | 699
56 | CNC(=O)c1cc2n(n1)CCCN(Cc1ccc(C)cc1)C2=O | 699
57 | CCNc1nc(N2CCN(C3CCCCC3)CC2)nc2c1cnn2C | 614
58 | COCCNC(=O)C1CCN(C(=O)c2cc3ccsc3n2Cc2ccc(Cl)cc2)CC1 | 843
59 | O=C(NCc1ccccn1)c1csc(Nc2ccc(OC(F)(F)F)cc2)n1 | 674
60 | COc1cc2nc(C(=O)N3CCCCC3)cc(Nc3ccc(Br)cc3)c2cc1OC | 743
61 | COc1ccc2c(c1)c(CN1CCC(C(=O)NCc3ccccc3Cl)CC1)cn2C | 699
62 | COc1ccc(OC)c2sc(NC(=O)c3cc(C)on3)nc12 | 748
63 | CN(C)CCNC(=O)c1ccc2ccnc(N3CCN(C(=O)c4ccco4)CC3)c2c1 | 557
64 | CCSc1nnc(-c2nn(C)c3c2CN(C(=O)c2ccccc2C)CC3)n1C | 734
65 | CC(=O)N1CCc2cc(N3CC(C(=O)NC(C)C)CC3=O)ccc21 (stereo unspecified) | 613
66 | COc1ccc(-c2cn3cccnc3n2)cc1NC(=O)c1ccc(Cl)cc1 | 743
